The record followed here is ChEMBL document CHEMBL1201862, “PubChem BioAssay data set” (2004).

Activity calls are given as the source filed them.

Test [1] in a line: microbe, parasite or virus in culture. It is filed as functional. As to conditions: Mycobacterium tuberculosis.
The nature of test [2]: viability of PTEN-deleted HCT116 cells – cell-based, HCT116 PTEN knockout, dose response (AID 1047).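 Further: HCT116 colon tumor cells with PTEN knocked out; cells exposed to compound for 60 hours before readout; potency for loss of cell viability measured by luminescence.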 It counts as functional.
Test [3] can be described thus: viability of HCT116 lacking mutant beta-catenin – cell-based, human colon tumor, dose response (AID 1045).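 Further: HCT116 colon tumor cells with beta catenin knocked out; cells exposed to compound for 60 hours.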 It is filed as functional.
Test [4] deals with T1, Ubiquitin-conjugating enzyme E2 N (Homo sapiens, UniProt P61088).
T1 sequence (P61088 whole entry): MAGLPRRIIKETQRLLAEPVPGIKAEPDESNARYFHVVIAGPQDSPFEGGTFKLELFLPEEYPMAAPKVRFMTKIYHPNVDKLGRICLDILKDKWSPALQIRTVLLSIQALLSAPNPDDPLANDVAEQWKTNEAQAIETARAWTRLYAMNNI
It counts as functional.

Another test concerns the target T2, Cytochrome P450 1A2 (Homo sapiens, UniProt P05177).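 Further: PubChem cytochrome P450 panel assay, CYP1A2 panel member.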
T2 sequence (P05177 whole entry): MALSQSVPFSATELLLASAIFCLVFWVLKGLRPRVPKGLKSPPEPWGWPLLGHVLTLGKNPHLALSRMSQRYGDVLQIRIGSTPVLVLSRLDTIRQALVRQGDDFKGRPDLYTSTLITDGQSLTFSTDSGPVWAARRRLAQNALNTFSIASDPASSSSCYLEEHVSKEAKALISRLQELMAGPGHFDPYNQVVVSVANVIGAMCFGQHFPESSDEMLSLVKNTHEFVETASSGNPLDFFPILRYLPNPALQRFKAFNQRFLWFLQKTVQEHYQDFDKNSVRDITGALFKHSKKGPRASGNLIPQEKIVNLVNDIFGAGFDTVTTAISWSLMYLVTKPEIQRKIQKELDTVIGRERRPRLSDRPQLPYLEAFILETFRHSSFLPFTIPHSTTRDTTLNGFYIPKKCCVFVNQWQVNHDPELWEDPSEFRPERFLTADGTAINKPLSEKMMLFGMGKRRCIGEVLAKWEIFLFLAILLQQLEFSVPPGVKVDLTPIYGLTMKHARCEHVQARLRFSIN

The target in the next test is Cytochrome P450 2D6 (Homo sapiens, UniProt P10635).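 Further: CYP2D6 member of a cytochrome P450 panel assay.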
The target in test [5] is T3, RNA-binding protein pos-1 (Caenorhabditis elegans, UniProt G5EF15).
T3 sequence (G5EF15 whole entry): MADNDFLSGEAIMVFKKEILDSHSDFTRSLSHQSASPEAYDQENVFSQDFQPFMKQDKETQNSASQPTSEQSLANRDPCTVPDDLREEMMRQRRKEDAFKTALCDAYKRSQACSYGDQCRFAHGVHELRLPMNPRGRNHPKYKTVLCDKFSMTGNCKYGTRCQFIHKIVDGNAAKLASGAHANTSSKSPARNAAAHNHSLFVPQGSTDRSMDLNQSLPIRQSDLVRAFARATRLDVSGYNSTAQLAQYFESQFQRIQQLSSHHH
The test is described as follows: disruptors of C. elegans POS-1 RNA interaction – biochemical, fluorescence polarization, dose response (AID 1964).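 Further: purified POS-1 fused to maltose binding protein made in E. coli; potency of compounds blocking POS-1 binding to fluorescent RNA.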

The target in test [6] is T4, Zinc finger protein mex-5 (Caenorhabditis elegans, UniProt Q9XUB2).
T4 sequence (Q9XUB2 whole entry): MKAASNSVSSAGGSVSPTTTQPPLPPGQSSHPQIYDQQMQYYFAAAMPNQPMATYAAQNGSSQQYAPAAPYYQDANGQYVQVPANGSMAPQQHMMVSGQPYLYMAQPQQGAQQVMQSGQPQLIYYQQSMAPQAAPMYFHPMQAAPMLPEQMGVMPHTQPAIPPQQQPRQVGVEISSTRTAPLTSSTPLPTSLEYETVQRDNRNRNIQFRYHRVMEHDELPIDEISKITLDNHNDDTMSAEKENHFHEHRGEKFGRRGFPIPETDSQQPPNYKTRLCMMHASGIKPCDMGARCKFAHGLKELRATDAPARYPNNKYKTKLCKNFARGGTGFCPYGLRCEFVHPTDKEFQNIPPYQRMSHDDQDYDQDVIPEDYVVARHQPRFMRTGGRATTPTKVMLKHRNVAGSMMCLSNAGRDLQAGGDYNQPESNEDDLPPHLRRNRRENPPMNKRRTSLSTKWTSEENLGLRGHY
In words: potency of MEX-5 RNA-binding blockers – biochemical, C. elegans, fluorescence polarization, dose response (AID 1960).

The target of test [7] is T5, Corticotropin-releasing factor receptor 2/Corticotropin-releasing factor-binding protein (Homo sapiens, UniProt P24387+Q13324).
T5 sequence (Q13324 whole entry): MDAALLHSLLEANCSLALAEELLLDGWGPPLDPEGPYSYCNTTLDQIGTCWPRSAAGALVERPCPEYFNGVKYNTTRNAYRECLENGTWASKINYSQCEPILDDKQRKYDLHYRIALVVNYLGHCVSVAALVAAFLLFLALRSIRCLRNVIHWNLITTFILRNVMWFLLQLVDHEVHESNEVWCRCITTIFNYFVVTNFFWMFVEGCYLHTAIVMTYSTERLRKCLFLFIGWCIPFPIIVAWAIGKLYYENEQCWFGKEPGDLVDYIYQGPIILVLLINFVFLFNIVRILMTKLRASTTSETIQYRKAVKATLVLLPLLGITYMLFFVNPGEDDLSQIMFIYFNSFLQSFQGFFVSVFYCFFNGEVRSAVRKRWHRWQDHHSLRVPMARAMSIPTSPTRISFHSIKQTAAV
T5 sequence (P24387 whole entry): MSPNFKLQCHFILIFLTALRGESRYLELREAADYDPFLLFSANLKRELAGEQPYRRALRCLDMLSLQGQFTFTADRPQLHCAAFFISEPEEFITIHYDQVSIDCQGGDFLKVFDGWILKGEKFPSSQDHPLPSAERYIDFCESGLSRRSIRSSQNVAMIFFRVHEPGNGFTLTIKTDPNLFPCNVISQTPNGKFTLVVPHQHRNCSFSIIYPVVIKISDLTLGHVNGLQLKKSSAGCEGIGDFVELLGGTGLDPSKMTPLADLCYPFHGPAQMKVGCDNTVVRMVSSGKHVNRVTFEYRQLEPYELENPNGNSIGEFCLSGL
In words: activators of CRF receptor 2 with binding protein – uHTS hits, confirmation (AID 602473). It counts as functional. As to conditions: read-out: EC50_Mean.

Test [8] can be described thus: blockers of bursicon-stimulated LGR2 cAMP reporter – cell-based, HEK293, CRE-luciferase reporter, cherry pick, set 2, dose response (AID 743343).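 Further: transfected cells were stimulated with diluted bursicon conditioned medium after compound addition.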 It counts as functional.
Test [9] in a line: blockade of melanocortin 4 receptor signaling – cell-based, plate reader, cherry pick, counter-screen for LGR2 antagonist project, dose response (AID 743444).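 Further: transfected HEK 293 cells stimulated with alpha-MSH peptide; potency of inhibitors of the alpha-MSH evoked signal.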 It counts as functional.
Test [10] can be described thus: NIH-3T3 fibroblast cytotoxicity, dose response, cytotoxicity control, cell-based, fluorescence, Alamar Blue, secondary assay (AID 2327).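 Further: NIH-3T3 mouse fibroblasts cultured with fluconazole at 8 µg/mL.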 It is filed as functional.
Test [11] is described as follows: fluconazole-exposed Candida albicans growth modulators – fluorescence, retest, confirmation (AID 2467). It is filed as functional, cell-based.
For test [12], the system named is Streptococcus sp. 'group A'. The test is described as follows: Streptococcus pyogenes SK(-)GAS viability under kanamycin – luminescence, BacTiterGlo, confirmation, counter-screen for streptokinase expression inhibitor project, dose response (AID 1900). It is filed as functional, organism-based.
Another test has as its system INS1. The test is described as follows: INS-1E survival protection against cytokine death – cell-based, luminescence, retest, dose response (AID 449756).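 Further: cell death triggered by IL-1 beta plus TNF-alpha plus IFN-gamma mixture; protective hits raise ATP signal compared with cytokine alone wells.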 It counts as functional. As to conditions: Rattus norvegicus.
The next test concerns Streptococcus. The test is described as follows: GAS UMAA2166 growth inhibition – luminescence, BacTiterGlo, counter-screen for streptokinase expression inhibitor project, dose response (AID 1915).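 Further: potency for reduction of bacterial viability or growth.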 It counts as functional, organism-based.
In a further test the target is T6, Streptokinase A (Streptococcus pyogenes serotype M1, UniProt P10520).
T6 sequence (P10520 whole entry): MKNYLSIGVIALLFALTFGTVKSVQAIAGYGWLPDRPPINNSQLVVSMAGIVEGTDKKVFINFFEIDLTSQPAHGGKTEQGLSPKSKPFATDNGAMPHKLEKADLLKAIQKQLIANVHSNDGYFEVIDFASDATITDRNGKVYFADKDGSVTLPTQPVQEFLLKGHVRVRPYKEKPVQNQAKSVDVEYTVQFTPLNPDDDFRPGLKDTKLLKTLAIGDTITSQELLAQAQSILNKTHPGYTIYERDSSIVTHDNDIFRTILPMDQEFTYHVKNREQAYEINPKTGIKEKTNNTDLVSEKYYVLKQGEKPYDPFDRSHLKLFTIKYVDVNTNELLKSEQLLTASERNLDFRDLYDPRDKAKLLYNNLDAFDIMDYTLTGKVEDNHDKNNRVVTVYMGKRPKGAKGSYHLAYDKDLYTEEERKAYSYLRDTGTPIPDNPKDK
In words: viability-normalized secreted streptokinase activity reduction – plasminogen activation absorbance, OD405, dose response (AID 1914).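 Further: secreted streptokinase activity via plasminogen activation per viability signal from cell pellet.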 It counts as functional, Streptococcus pyogenes M1 GAS.

Test [13] in a line: viability of uninfected HEp-2 cells – cell-based, HTS, cytotoxicity control for RSV inhibitor project, dose response (AID 2410). The following applies: human respiratory syncytial virus. It is filed as functional.
In a further test the test system is H9c2. The test is described as follows: cells. It is filed as functional, cell-based. The following applies: Rattus norvegicus, H9c2, Myocardium.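 Further: confirmatory concentration-response retest of ultra-high-throughput screening hits for modulation of myocardial damage; cell death induced by hydrogen peroxide oxidative stress; compound pretreatment for 60 min then peroxide exposure for 2 h; potency is for protecting the cells against peroxide damage rather than for killing them.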
In test [14] the target is FAD-linked sulfhydryl oxidase ALR (Homo sapiens, UniProt P55789). In words: ALR-catalysed DTT oxidation blockers – biochemical, H2O2 detection, luminescence, cherry-pick, dose response (AID 493248).
Chain of FAD-linked sulfhydryl oxidase ALR (P55789 whole entry): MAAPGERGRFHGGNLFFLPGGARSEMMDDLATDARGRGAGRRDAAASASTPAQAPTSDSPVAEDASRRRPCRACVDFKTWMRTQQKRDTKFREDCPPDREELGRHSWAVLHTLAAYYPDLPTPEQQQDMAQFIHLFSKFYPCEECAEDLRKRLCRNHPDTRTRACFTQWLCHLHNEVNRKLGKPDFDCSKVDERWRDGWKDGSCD

Chain of Cytochrome P450 2D6 (P10635 whole entry): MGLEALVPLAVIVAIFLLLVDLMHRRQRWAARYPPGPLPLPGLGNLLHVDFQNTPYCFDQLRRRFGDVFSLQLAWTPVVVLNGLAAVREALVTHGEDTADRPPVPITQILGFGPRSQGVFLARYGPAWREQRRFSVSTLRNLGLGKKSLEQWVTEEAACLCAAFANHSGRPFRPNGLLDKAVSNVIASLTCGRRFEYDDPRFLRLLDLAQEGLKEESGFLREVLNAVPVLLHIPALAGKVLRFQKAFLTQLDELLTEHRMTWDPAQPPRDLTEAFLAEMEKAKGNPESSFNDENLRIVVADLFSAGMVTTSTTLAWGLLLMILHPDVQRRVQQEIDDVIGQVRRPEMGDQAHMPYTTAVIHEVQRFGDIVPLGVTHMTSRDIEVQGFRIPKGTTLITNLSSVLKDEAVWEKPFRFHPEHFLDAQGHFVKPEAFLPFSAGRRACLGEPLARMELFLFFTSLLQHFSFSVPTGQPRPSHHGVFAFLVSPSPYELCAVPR

Take `CC(=O)OC[C@H]1O[C@@H](O[C@@H]2C[C@H]3C(C)(C)[C@H](OC(C)=O)CC[C@]3(C)[C@H]3CC[C@]45C[C@]4(CC[C@H]5[C@@H](C)C[C@@H](O)[C@H](O)C(C)(C)O)[C@@]32C)[C@H](O)[C@@H](O)[C@@H]1O` [CUMINGIANOSIDE A]: the CC50 in test [1] is 27.7 µM (active). The figures for the EC50 in test [2] and in [3] were 8.19 µM (active) and 8.05 µM (active), respectively.

Consider `CN(C)CCNc1oc(COc2ccc(Cl)cc2Cl)nc1C#N`, for which the IC50 in test [4] is > 20 µM (inactive). For the same compound, the AC50 on Cytochrome P450 1A2 is 25.1 µM (inconclusive); at Cytochrome P450 2D6, 14.1 µM (inconclusive).

`Cc1cccc(Oc2nc(-c3ccccn3)nc3ccccc23)c1`: the EC50 in [5] is > 300 µM (not active); in test [6] it was 173 µM (active).

`O=C(Nc1ccc(OC(F)(F)F)cc1)c1ccc2c(c1)no[n+]2[O-]`: the CC50 in test [1] is 20.6 µM (active).

On to `COc1ccccc1N=C(S)NNC(=O)c1cc(C)n(C)n1`, for which the EC50 was 50.3 µM (active) in test [5] and 58.4 µM (active) in test [6].

On to `O=C(NC(=S)Nc1ccc(N2CCN(C(=O)c3ccccc3)CC2)cc1)c1cccs1`, for which, in test [4], the IC50 was > 20 µM (inactive).

`O=C(O)c1ccc(NC(=O)C2CCCCC2)cc1`: the EC50 in [7] is > 53 µM (inactive).

As for `Cc1ccc(OCCCC(=O)NNC(=O)c2ccccn2)cc1`, the IC50 in test [4] is > 20 µM (inactive).

In the case of `CC1CN(C2CC(C)(C)NC(C)(C)C2)CCC1=O` (stereo unspecified), the EC50 in [5] and in test [6] was > 300 µM (not active) each time.

With `c1ccc(-n2ncc3c(N4CCCCC4)ncnc32)cc1`, the values for the AC50 in test [8] and in [9] were 1.94 µM (active) and 2.83 µM (active), respectively.

Consider `Cn1ncc2c(NNC(=O)c3ccc(O)cc3)ncnc21`, for which the EC50 was 39.5 µM (active) in test [5] and 6.35 µM (active) in [6].

`O=C1c2ccccc2C(=O)N1c1ncc(Cc2ccc(Cl)cc2)s1`: the EC50 in test [7] was 2.43 µM (active).

In the case of `O=C(/C=C/c1ccco1)Nc1cccc(-c2nc3ccccc3[nH]2)c1`, the EC50 is > 150 µM (inactive) in test [10] and 1.86 µM (active) in test [11]. Further, the CC50 in test [1] was 30.8 µM (active).

In the case of `C#CCOCCOCCOCCNc1nc(N2CCN(C(=O)[C@H]([C@@H](C)CC)n3cc([C@@H](N)CC(C)C)nn3)CC2)nc(N2CCN(C(=O)[C@H]([C@@H](C)CC)n3cc([C@@H](N)CC(C)C)nn3)CC2)n1`, the IC50 in test [4] was > 20 µM (inactive).

On to `O=[N+]([O-])c1cc(-c2ccc([As](=O)(O)O)cc2)ccc1[As](=O)(O)O`, for which the EC50 in test [5] was 22.8 µM (inconclusive); in test [6], 18 µM (active).

On to `CCCCCc1ccc(OCCCC[n+]2ccccc2)c(CCCCC)c1`, for which the EC50 in test [10] is > 160 µM (inactive); in test [12], 3.85 µM (active); in [11], < 0.03 µM (active); in the test on Streptococcus it was 8.33 µM (active); on Streptokinase A, 27.1 µM (active). In addition, the IC50 in test [4] was > 20 µM (inactive). Also, the half-maximal activity concentration (AC50) in the test with INS1 was 2.79 µM (active).

Take `CC1(C)CC(=O)C2=C(C1)OC(N)=C(C#N)C2c1ccc2c(c1)OCO2` (stereo unspecified): the EC50 in [5] and in test [6] was > 300 µM (not active) in each case.

With `CC(=O)c1ccccc1OCC(O)CN1CCN(CCN2C(=O)c3cccc4cccc(c34)C2=O)CC1` (stereo unspecified), the IC50 was > 20 µM (inactive) in [4] and 23.1 µM (active) in the test on H9c2. In test [13], the CC50 was > 50 µM (active).

Consider `COc1ccc(N2CCN(CCCNC(=O)C3CCCN(S(=O)(=O)c4c[nH]cn4)C3)CC2)cc1` (stereo unspecified), for which the AC50 in [14] was 25.4 µM (active).

For the compound `Cc1nc(SCc2cccnc2)nc(O)c1C`, the AC50 in test [14] is 1.18 µM (active).
